Measured values taken from patent US9944602B2, “Piperidinone herbicides” (E. I. DU PONT DE NEMOURS AND COMPANY, priority 2014, dated 2018).

Experiments:
Format in all cases: in vivo
[1] = tested on: barnyardgrass (Echinochloa crus-galli); assay: Test A postemergence barnyardgrass; settings: 0 to 100 scale, 0 is no effect, 100 is complete control
Method in brief: (§1)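 Directed soil spray at planting gives preemergence data; foliar application to one- to two-leaf plants gives postemergence data. Response is visual injury relative to untreated controls about 10 d after treatment, scored 0–100.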

[2] = tested on: ryegrass, Italian (Italian ryegrass, Lolium multiflorum); assay: Test A postemergence ryegrass, Italian; settings: 0 to 100 scale, 0 is no effect, 100 is complete control
Method in brief: as §1

corn (Zea mays) = assay: Test A postemergence corn; settings: 0 to 100 scale, 0 is no effect, 100 is complete control
Method in brief: as §1

[3] = tested on: ducksalad (Heteranthera limosa); assay: Test C flooded paddy test ducksalad; settings: Table C, Flood, scale 0 to 100
From the text: (§2) Plant species in the flooded paddy test consisted of rice (Oryza sativa), sedge, umbrella (small-flower umbrella sedge, Cyperus difformis), ducksalad (Heteranthera limosa), and barnyardgrass (Echinochloa crus-galli) grown to the 2-leaf stage for testing. At time of treatment, test pots were flooded to 3 cm above the soil surface, treated by application of test compounds directly to the paddy water, and then maintained at that water depth for the duration of the test. Treated plants and controls were maintained in a greenhouse for 13 to 15 d, after which time all species were compared to controls and visually evaluated. Plant response ratings, summarized in Table C, are based on a scale of 0 to 100 where 0 is no effect and 100 is complete control. A dash (-) response means no test result.

[4] = tested on: foxtail, giant (giant foxtail, Setaria faberii); assay: Test A preemergence foxtail, giant; settings: 0 to 100 scale, 0 no effect, 100 complete control
Method in brief: as §1

[5] = tested on: foxtail, giant (giant foxtail, Setaria faberii); assay: Test A postemergence foxtail, giant; settings: 0 to 100 scale, 0 is no effect, 100 is complete control
Method in brief: as §1

[6] = tested on: ragweed (common ragweed, Ambrosia elatior); assay: Test A postemergence ragweed; settings: 0 to 100 scale, 0 is no effect, 100 is complete control
Method in brief: as §1

kochia (Kochia scoparia) [7] = assay: Test A preemergence kochia; settings: 0 to 100 scale, 0 no effect, 100 complete control
Method in brief: as §1

kochia (Kochia scoparia) [8] = assay: Test A postemergence kochia; settings: 0 to 100 scale, 0 is no effect, 100 is complete control
Method in brief: as §1

[9] = tested on: wheat (Triticum aestivum); assay: Test A postemergence wheat; settings: 0 to 100 scale, 0 is no effect, 100 is complete control
Method in brief: as §1

[10] = tested on: sedge, umbrella (small-flower umbrella sedge, Cyperus difformis); assay: Test C flooded paddy test sedge, umbrella; settings: Table C, Flood, scale 0 to 100
From the text: as §2

[11] = tested on: barnyardgrass (Echinochloa crus-galli); assay: Test A preemergence barnyardgrass; settings: 0 to 100 scale, 0 no effect, 100 complete control
Method in brief: as §1

rice (Oryza sativa) [12] = assay: Test C flooded paddy test rice; settings: Table C, Flood, scale 0 to 100
From the text: as §2

[13] = tested on: pigweed (Amaranthus retroflexus); assay: Test A postemergence pigweed; settings: 0 to 100 scale, 0 is no effect, 100 is complete control
Method in brief: as §1

[14] = tested on: pigweed (Amaranthus retroflexus); assay: Test A preemergence pigweed; settings: 0 to 100 scale, 0 no effect, 100 complete control
Method in brief: as §1

[15] = tested on: barnyardgrass (Echinochloa crus-galli); assay: Test C flooded paddy test barnyardgrass; settings: Table C, Flood, scale 0 to 100
From the text: as §2

rice (Oryza sativa) [16] = assay: Test B flooded paddy test rice; settings: Table B, Flood, 500 g ai/ha, scale 0 to 100
Method in brief: (§3)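 Water-applied paddy treatment: compound dosed into 3 cm flood on 2-leaf plants, read visually versus controls after 13 to 15 d.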

[17] = tested on: ragweed (common ragweed, Ambrosia elatior); assay: Test A preemergence ragweed; settings: 0 to 100 scale, 0 no effect, 100 complete control
Method in brief: as §1

[18] = tested on: blackgrass (Alopecurus myosuroides); assay: Test A postemergence blackgrass; settings: 0 to 100 scale, 0 is no effect, 100 is complete control
Method in brief: as §1

[19] = tested on: barnyardgrass (Echinochloa crus-galli); assay: Test B flooded paddy test barnyardgrass; settings: Table B, Flood, 500 g ai/ha, scale 0 to 100
Method in brief: as §3

[20] = tested on: ryegrass, Italian (Italian ryegrass, Lolium multiflorum); assay: Test A preemergence ryegrass, Italian; settings: 0 to 100 scale, 0 no effect, 100 complete control
Method in brief: as §1

[21] = tested on: ducksalad (Heteranthera limosa); assay: Test B flooded paddy test ducksalad; settings: Table B, Flood, 500 g ai/ha, scale 0 to 100
Method in brief: as §3

[22] = tested on: galium (catchweed bedstraw, Galium aparine); assay: Test A postemergence galium; settings: 0 to 100 scale, 0 is no effect, 100 is complete control
Method in brief: as §1

[23] = tested on: sedge, umbrella (small-flower umbrella sedge, Cyperus difformis); assay: Test B flooded paddy test sedge, umbrella; settings: Table B, Flood, 500 g ai/ha, scale 0 to 100
Method in brief: as §3

Compound: O=C1NCCC(c2cccc(C(F)(F)F)c2)C1C(=O)Nc1cccc(F)c1Cl (racemic) [Compound 19]
- Plant response rating, Barnyardgrass ([1]; 125 g ai/ha): 60
- Plant response rating, Barnyardgrass ([1]; 500 g ai/ha): 80
- Plant response rating, Ryegrass, Italian ([2]; 125 g ai/ha): 0
- Plant response rating, Ryegrass, Italian ([2]; 500 g ai/ha): 20
- Plant response rating, Corn (corn (Zea mays); 125 g ai/ha): 0
- Plant response rating, Corn (corn (Zea mays); 500 g ai/ha): 50
- Plant response rating ([3]; 31 g ai/ha): 0
- Plant response rating ([3]; 62 g ai/ha): 0
- Plant response rating ([3]; 125 g ai/ha): 0
- Plant response rating ([3]; 250 g ai/ha): 0
- Foxtail, Giant plant response rating ([4]; 125 g ai/ha): 80
- Foxtail, Giant plant response rating ([4]; 500 g ai/ha): 90
- Plant response rating, Foxtail, Giant ([5]; 125 g ai/ha): 70
- Plant response rating, Foxtail, Giant ([5]; 500 g ai/ha): 80
- Plant response rating, Ragweed ([6]; 125 g ai/ha): 0
- Plant response rating, Ragweed ([6]; 500 g ai/ha): 0
- Kochia plant response rating (kochia (Kochia scoparia) [7]; 125 g ai/ha): 0
- Kochia plant response rating (kochia (Kochia scoparia) [7]; 500 g ai/ha): 20
- Plant response rating, Kochia (kochia (Kochia scoparia) [8]; 125 g ai/ha): 0
- Plant response rating, Kochia (kochia (Kochia scoparia) [8]; 500 g ai/ha): 20
- Plant response rating, Wheat ([9]; 125 g ai/ha): 0
- Plant response rating, Wheat ([9]; 500 g ai/ha): 30
- Plant response rating ([10]; 31 g ai/ha): 0
- Plant response rating ([10]; 62 g ai/ha): 0
- Plant response rating ([10]; 125 g ai/ha): 0
- Plant response rating ([10]; 250 g ai/ha): 0
- Barnyardgrass plant response rating ([11]; 125 g ai/ha): 70
- Barnyardgrass plant response rating ([11]; 500 g ai/ha): 80
- Plant response rating (rice (Oryza sativa) [12]; 31 g ai/ha): 0
- Plant response rating (rice (Oryza sativa) [12]; 62 g ai/ha): 0
- Plant response rating (rice (Oryza sativa) [12]; 125 g ai/ha): 0
- Plant response rating (rice (Oryza sativa) [12]; 250 g ai/ha): 0
- Plant response rating, Pigweed ([13]; 125 g ai/ha): 0
- Plant response rating, Pigweed ([13]; 500 g ai/ha): 0
- Pigweed plant response rating ([14]; 125 g ai/ha): 0
- Pigweed plant response rating ([14]; 500 g ai/ha): 0
- Plant response rating ([15]; 31 g ai/ha): 0
- Plant response rating ([15]; 62 g ai/ha): 0
- Plant response rating ([15]; 125 g ai/ha): 0
- Plant response rating ([15]; 250 g ai/ha): 0
- Plant response rating (rice (Oryza sativa) [16]): 0
- Ragweed plant response rating ([17]; 125 g ai/ha): 0
- Ragweed plant response rating ([17]; 500 g ai/ha): 20
- Plant response rating, Blackgrass ([18]; 125 g ai/ha): 40
- Plant response rating, Blackgrass ([18]; 500 g ai/ha): 50
- Plant response rating [19]: 60
- Ryegrass, Italian plant response rating ([20]; 125 g ai/ha): 20
- Ryegrass, Italian plant response rating ([20]; 500 g ai/ha): 30
- Plant response rating [21]: 60
- Plant response rating, Galium ([22]; 125 g ai/ha): 20
- Plant response rating, Galium ([22]; 500 g ai/ha): 20
- Plant response rating [23]: 0
